These results are taken from a melting point compilation (Tetko et al.; mined from patent text by program, amines drawn as free bases though some values may be those of a salt).

Consider `O=C(O)CN1C(=O)c2cccc3c(Sc4ccccc4)ccc(c23)C1=O`, for which the melting point (commonly the temperature, or range, at which the solid turns liquid) was 250 to 253 °C. Under `Cc1cccc(-c2ccccc2)c1NC(=N)N(C)C` stands 144 to 145 °C; under `COc1ccc(C=CCCCCCC(=O)O)cc1`, 42 to 43 °C; under `Cc1ccc(C(=O)c2c(Cl)cc(Cl)cc2Cl)cc1C(C)c1ccc(=O)[nH]n1` (configuration not stated), 221 to 222 °C.

On to `CCOC(=O)Cn1c(-c2ccc3c(c2)OCCO3)nc2ccccc21`, for which the melting point was in the range of 113 to 114 °C.

In the case of `CSc1cncc(Oc2ccc(Cl)c(Cl)c2)c1`, the melting point is 55 °C. As for `NS(=O)(=O)Cc1cccc(NC(=O)c2cnn3c(C(F)F)cc(-c4ccc(C(F)(F)F)cc4)nc23)c1`, the figure is 280 °C. For `Cc1cc(C)nc(Oc2ccc(-c3ccn(CC4CC4)c(=O)c3C#N)c(F)c2)c1`, the melting point came to 137 °C.

In turn, `CC(=O)OC1CSC(Oc2cccc3ccoc23)C(OC(C)=O)C1OC(C)=O` (configuration not stated) came in with a melting point of 152 °C. Under `CC1CCC(=O)N1c1ccnc(NC(=O)NCc2ccccn2)c1` (configuration not stated) stands 155 to 160 °C.

`CN1CCC(C2c3ccccc3CCn3ncnc32)CC1` (configuration not stated) yielded a melting point of 134 °C. As for `COC(=O)c1nc2cc(C(F)(F)F)ccc2c(O)c1C(=O)OC`, the figure is 210 °C.

Turning to `O=c1c(Cc2ccccc2)cn(-c2ccc(F)cc2)c2ncccc12`, the melting point is 208 to 209 °C. Under `CCCCc1nc(Cl)c(CO)n1Cc1ccc(-c2cccc(C(=O)OC)c2)cc1` stands 162 to 163 °C; under `CC(=O)OC1CSC(Oc2cccc3conc23)C(OC(C)=O)C1OC(C)=O` (configuration not stated), 157 °C; under `O=C(c1ccccc1F)c1cc2c(c(Cl)c1Cl)OC(C(=O)O)C2` (configuration not stated), 180 to 181 °C. As for `CCC(C)(C)C(=O)NNc1cc(NC(=O)CC(C)(C)C)cc(NC(=O)CC(C)(C)C)c1`, the figure is 332 to 334 °C.

The compound `COC(=O)c1ccc(O)c(C=NO)c1` showed a melting point of 155 °C.

With `O=C(CCC(=O)N1CCN(c2ccc(N3C[C@H](CNC(=S)C4CC4)OC3=O)cc2F)CC1)c1ccc(CN2CCOCC2)cc1`, the melting point is 173 to 174 °C. Under `CCCCc1ncc(/C=C(\Cc2cccs2)c2nnn[nH]2)n1Cc1cccc(Cl)c1Cl` stands 204 to 205 °C; under `CCCn1nc2c(N)nc3ccccc3c2c1CCCCN1C(C)=NOC12CCCC2`, 101 to 105 °C; under `Fc1ccc(C2CCN(CCN(CCN3CCC(c4ccc(F)cc4)CC3)c3ccccc3)CC2)cc1`, 104 to 105 °C. Under `NC(CO)c1ccc(OC(F)F)cc1` (configuration not stated) stands 54 to 57 °C; under `COc1ccc(-c2cncc(OC3SCC(OC(C)=O)C(OC(C)=O)C3OC(C)=O)c2)c(Cl)c1` (configuration not stated), 126 °C; under `COc1cc(-c2n[nH]c(N=C(c3ccccc3)c3ccccc3)n2)c(OC)cc1C`, 228 °C. Consider `CCOC(=O)c1cnc2c(c1O)CC(CC)CC2` (configuration not stated), for which the melting point was 218 to 220 °C.

`COc1ccc(NC(=O)c2ccc(Cl)c(Cl)c2)cc1NCc1cccc(F)c1` returned a melting point of 197 to 199 °C. Under `CCC(O)(CC(N)=O)c1ccc(Br)cc1` (configuration not stated) stands 118 to 119 °C; under `CCOC(=O)c1ccc(NCCOc2ccc(Cl)cc2Cl)cc1`, 111 to 113 °C. As for `Cc1c(N2CC(F)C(C3(N)CCC3)C2)c(F)c(N)c2c(=O)c(C(=O)O)cn(C3CC3F)c12` (configuration not stated), the figure is 177 to 184 °C; as for `O=c1oc2ccccc2nc1-c1cc(O)c(O)c([N+](=O)[O-])c1`, 120 °C. In turn, `COc1cc(N)c(Cl)cc1C(=O)NC1CCN(CCNC(=O)C(O)c2ccccc2)CC1OC` (configuration not stated) registered a melting point of 228 °C. Under `O=C(O)CCc1ccc(Cl)cc1F` stands 83 to 85 °C; under `COC(=O)c1cccc2c1Nc1ccc(I)cc1C2`, 122 to 124 °C. Under `CC(C)CCC(=O)OC1c2ccccc2C(=O)N1c1ccc2ccc(F)nc2n1` (configuration not stated) stands 154 °C; under `COc1ccc(-c2cc(NC(=O)Nc3ccc(Cl)cc3)on2)cc1`, 165 to 170 °C. As for `Cc1ccccc1C(=O)Nc1cccc(OCc2ccccc2)c1`, the figure is 114 to 115 °C; as for `COC(=O)CS(=O)(=O)N1CC=C(c2ccc(-c3ccccc3)c(OC)c2)CC1`, 92 to 95 °C.

Compound `CON(C)C(=O)Nc1ccc(OCc2nc(Cl)ccc2Cl)cc1` returned a melting point of 152 to 154 °C. As to `CCc1cc(NC(=O)c2nnn(Cc3ccccc3)n2)c(O)c(C(C)=O)c1`, the melting point is 159 to 161 °C. Under `CC(C)(C)OC(=O)c1ccc2c(c1)NCc1ccccc1O2` stands 121 to 123 °C. As for `COC1(c2cccc(Sc3ccc4c(c3)C(C)(C)S(=O)(=O)C4(C)C)c2)CCOCC1`, the figure is 133 to 135 °C; as for `O=C(Nc1ccccc1S(=O)(=O)N1CCCCC1)N[C@@H](Cc1ccc(Oc2nccc3ccncc23)cc1)C(=O)O`, 159 °C; as for `CC(C)c1ccc(N(Cc2cnn(C3CCCC3)c2)C(=O)C2CCCc3c(O)cccc32)cc1` (configuration not stated), 173 °C. Under `COC1(OC)CCN(c2cc3c(cc2F)c(=O)c(C(=O)O)cn3C2CC2)C1` stands 224 to 226 °C; under `Cc1ccsc1-c1nc(-c2c(F)cccc2Cl)nn1C`, 80 to 82 °C; under `CCCOc1ccc(/C=C/C(=O)O)cc1-c1nc2c(CCC)nn(C)c2c(=O)[nH]1`, 229 to 230 °C. In the case of `O=C(O)C1=CC2=C(C(=O)C1)N1C=CC=CC1=CS2`, the melting point amounted to 222 °C.

On to `CCCCCCCCCCCCCCCCSCC(CNS(=O)(=O)CCCCl)NC(=O)NC` (configuration not stated), for which the melting point was in the range of 79 to 80 °C. Under `COc1cccc(C(=O)Nc2ccc(Cn3cnc(O)c3C(N)=O)cc2)c1` stands 257 to 259 °C; under `O=Cc1c[nH]c2ccc3c(c12)CC(O)CO3` (configuration not stated), 158 to 162 °C; under `O=C(O)CCCCCOc1cccc(CCCCCCOc2ccc3c(c2CCCc2ccccc2)OCCC3=O)c1CCC(=O)O`, 97 to 98 °C. Under `CC(C)=NNc1ccc(OCC(C)(C)NCC(O)COc2ccccc2C#N)nn1` (configuration not stated) stands 126 to 128 °C; under `CCCCn1ccc2cc(-c3ccc(C(F)(F)F)cc3)ccc21`, 52 to 53 °C. As for `Cc1cccc(Nc2ncnc3cnc(NC4CCN(C(=O)N(C)C)CC4)nc23)c1`, the figure is 185 to 187 °C; as for `COCc1nc2c(C(=O)c3cccnc3Oc3cccc(Cl)c3)ccc(OC)c2[nH]1`, 181 to 183 °C; as for `CC(C)(C)c1cc(C=O)cc(Br)c1O`, 126 °C. Consider `C#CCN1CCCc2ccc(OC(=O)Nc3ccccc3Br)cc21`, for which the melting point stood at 105 °C. As for `CCOc1ccc2c(c1O)CCN(C(C)=O)[C@@H]2c1cc(Cl)cc(Cl)c1`, the figure is 238 to 241 °C; as for `O=C(Nc1cc(CN2CCCCC2)c(O)c(CN2CCCCC2)c1)c1ccccc1`, 138 to 140 °C.

The compound `CCCCC(CC)C(c1ccc(O)cc1)c1ccc(O)cc1` (configuration not stated) had a melting point of 87 °C. As for `CCOC(=O)c1cn(-c2ccc([N+](=O)[O-])cn2)nc1SCc1ccccc1`, the figure is 164 to 166 °C.
